Several values for one entry are separate records, joined by “and”; a condition that tells them apart may be missing. Equal entries are not always repeated. Toxic doses and inconclusive results are not listed. No stated cut-off is given here; in the data, active means T/C of 150% or more; inactive means T/C below 125%.
System: L1210 leukemia ip in BDF1 mice, survival T/C
Assay: NCI In Vivo Anticancer Drug Screen. Data for tumor model L1210 Leukemia (intraperitoneal) in B6D2F1 (BDF1) mice
Conditions: endpoint: mean survival time, higher = longer survival
Summary of the method: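 Survival endpoint. Drug-treated group vs vehicle group, expressed as T divided by C. Tumor passaged by transplantation.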

[1] = dose: 12.5 mg/kg/injection, schedule: Q01DX009 (ip), vehicle: saline with Tween-80
[2] = dose: 25.0 mg/kg/injection, schedule: Q01DX009 (ip), vehicle: Klucel (hydroxypropylcellulose) (HPC)
[3] = dose: 25.0 mg/kg/injection, schedule: Q01DX009 (ip), vehicle: saline with Tween-80
[4] = dose: 50.0 mg/kg/injection, schedule: Q01DX001 (ip), vehicle: carboxymethylcellulose (CMC)
[5] = dose: 50.0 mg/kg/injection, schedule: Q01DX009 (ip), vehicle: Klucel (hydroxypropylcellulose) (HPC)
[6] = dose: 50.0 mg/kg/injection, schedule: Q01DX009 (ip), vehicle: saline with Tween-80
[7] = dose: 100.0 mg/kg/injection, schedule: Q01DX001 (ip), vehicle: carboxymethylcellulose (CMC)
[8] = dose: 100.0 mg/kg/injection, schedule: Q01DX009 (ip), vehicle: Klucel (hydroxypropylcellulose) (HPC)
[9] = dose: 100.0 mg/kg/injection, schedule: Q01DX009 (ip), vehicle: saline with Tween-80
[10] = dose: 100.0 mg/kg/injection, schedule: Q04DX003 (ip), vehicle: Klucel (hydroxypropylcellulose) (HPC)
[11] = dose: 200.0 mg/kg/injection, schedule: Q01DX001 (ip), vehicle: carboxymethylcellulose (CMC)
[12] = dose: 200.0 mg/kg/injection, schedule: Q01DX009 (ip), vehicle: saline with Tween-80
[13] = dose: 200.0 mg/kg/injection, schedule: Q01DX009 (ip), vehicle: Klucel (hydroxypropylcellulose) (HPC)
[14] = dose: 200.0 mg/kg/injection, schedule: Q04DX003 (ip), vehicle: Klucel (hydroxypropylcellulose) (HPC)
[15] = dose: 400.0 mg/kg/injection, schedule: Q01DX009 (ip), vehicle: Klucel (hydroxypropylcellulose) (HPC)
[16] = dose: 400.0 mg/kg/injection, schedule: Q04DX003 (ip), vehicle: Klucel (hydroxypropylcellulose) (HPC)
[17] = dose: 100.0 mg/kg/injection, schedule: Q01DX001 (ip), vehicle: saline
[18] = dose: 50.0 mg/kg/injection, schedule: Q04DX003 (ip), vehicle: saline
[19] = dose: 100.0 mg/kg/injection, schedule: Q04DX003 (ip), vehicle: saline

Measured: T/C

O=C1N(Cl)C(=O)C(c2ccc(Cl)cc2)(c2ccc(Cl)cc2)N1Cl
inactive: [1] 98 % of control | [2] 106 % of control | [3] 96 % of control | dose: 25.0 mg/kg/injection, schedule: Q04DX003 (ip), vehicle: Klucel (hydroxypropylcellulose) (HPC) 113 % of control | [4] 101 % of control | [5] 106 % of control | [6] 102 % of control | dose: 50.0 mg/kg/injection, schedule: Q04DX003 (ip), vehicle: Klucel (hydroxypropylcellulose) (HPC) 106 % of control | [7] 108 % of control | [8] 98 % of control | dose: 100.0 mg/kg/injection, schedule: Q01DX009 (ip), vehicle: saline sonified 122 % of control | [9] 106 % of control | [10] 108 % of control | [11] 102 % of control | dose: 200.0 mg/kg/injection, schedule: Q01DX009 (ip), vehicle: saline sonified 93 % of control | [12] 106 % of control | dose: 400.0 mg/kg/injection, schedule: Q01DX001 (ip), vehicle: carboxymethylcellulose (CMC) 103 % of control

S=c1sc2ccccc2n1CN1CCCCC1
inactive: [8] 95 % of control | [10] 92 % of control | [13] 103 % of control | [14] 97 % of control | [15] 105 % of control | [16] 96 % of control

CC(C)C(NC(=O)OC(C)(C)C)C(=O)O (configuration not stated)
inactive: dose: 12.5 mg/kg/injection, schedule: Q01DX009 (ip), vehicle: alcohol 106 % of control | dose: 25.0 mg/kg/injection, schedule: Q01DX009 (ip), vehicle: alcohol 109 % of control | dose: 25.0 mg/kg/injection, schedule: Q04DX003 (ip), vehicle: other 107 % of control | dose: 50.0 mg/kg/injection, schedule: Q01DX009 (ip), vehicle: alcohol 96 % of control | dose: 50.0 mg/kg/injection, schedule: Q04DX003 (ip), vehicle: other 93 % of control and 108 % of control | [17] 103 % of control | dose: 100.0 mg/kg/injection, schedule: Q01DX009 (ip), vehicle: alcohol 104 % of control | dose: 100.0 mg/kg/injection, schedule: Q04DX003 (ip), vehicle: other 94 % of control and 96 % of control | dose: 200.0 mg/kg/injection, schedule: Q01DX009 (ip), vehicle: alcohol 107 % of control | dose: 200.0 mg/kg/injection, schedule: Q04DX003 (ip), vehicle: other 101 % of control and 103 % of control

COc1ccccc1C(=O)N/N=C/c1ccccc1Cl
inactive: [2] 96 % of control | [5] 96 % of control | [8] 104 % of control and 105 % of control | [10] 108 % of control | [13] 108 % of control | [14] 111 % of control | [15] 103 % of control | [16] 108 % of control

COC(=O)c1c(C(=O)c2ccccc2)nn2c(-c3ccccc3)c(-c3ccccc3)c(-c3ccccc3)c(-c3ccccc3)c12
inactive: dose: 200.0 mg/kg/injection, schedule: Q01DX001 (ip), vehicle: saline 86 % of control | dose: 400.0 mg/kg/injection, schedule: Q01DX001 (ip), vehicle: saline 93 % of control

CN=C(NC(C=O)C(O)C(O)C(O)CO)c1ccc(NC(=O)c2ccc(C(=O)Nc3ccc(C(=NC)NC(C=O)C(O)C(O)C(O)CO)cc3)cc2)cc1 (configuration not stated)
inactive: dose: 62.0 mg/kg/injection, schedule: Q01DX Z (ip), vehicle: water 111 % of control | dose: 125.0 mg/kg/injection, schedule: Q01DX Z (ip), vehicle: water 115 % of control

C/C(CC(O)(C(F)(F)F)C(F)(F)F)=N\N1CCCCCC1
inactive: [10] 97 % of control | [14] 103 % of control | [16] 94 % of control

Cc1ccc(S(=O)(=O)Cl)c(Cl)c1
inactive: [6] 92 % of control | [9] 94 % of control | [12] 91 % of control

Cc1cc(C)cc(C(C)C)c1
inactive: dose: 100.0 mg/kg/injection, schedule: Q04DX003 (ip), vehicle: saline with Tween-80 96 % of control | dose: 200.0 mg/kg/injection, schedule: Q04DX003 (ip), vehicle: saline with Tween-80 96 % of control | dose: 400.0 mg/kg/injection, schedule: Q04DX003 (ip), vehicle: saline with Tween-80 93 % of control

O=C(O)C(SSC(C(=O)O)(c1ccccc1)c1ccccc1)(c1ccccc1)c1ccccc1
inactive: [10] 106 % of control | [14] 102 % of control | [16] 88 % of control

CCOC(=O)n1[nH][nH]c2c(c(=O)n(C)c(=O)n2C)n1C(=O)OCC
inactive: dose: 75.0 mg/kg/injection, schedule: Q04DX003 (ip), vehicle: saline 95 % of control | dose: 150.0 mg/kg/injection, schedule: Q04DX003 (ip), vehicle: saline 95 % of control | dose: 300.0 mg/kg/injection, schedule: Q04DX003 (ip), vehicle: saline 94 % of control

c1ccc(C2=NCCCO2)cc1
inactive: [1] 100 % of control | [3] 103 % of control | [6] 102 % of control | [18] 91 % of control | [9] 102 % of control | [19] 96 % of control

CCCCOC(=O)c1ccc(OC(=O)Nc2ccc(OC)cc2Cl)cc1
inactive: dose: 100.0 mg/kg/injection, schedule: Q04DX002 (ip), vehicle: saline 110 % of control | dose: 200.0 mg/kg/injection, schedule: Q04DX002 (ip), vehicle: saline 104 % of control | dose: 400.0 mg/kg/injection, schedule: Q04DX002 (ip), vehicle: saline 100 % of control

CCCC(=O)CCN(C)Cc1ccccc1
inactive: [17] 103 % of control

c1ccc(C2SCc3ccc(cc3)Sc3ccc(cc3)CS2)cc1
inactive: dose: 100.0 mg/kg/injection, schedule: Q01DX001 (ip), vehicle: saline with Tween-80 91 % of control | dose: 200.0 mg/kg/injection, schedule: Q01DX001 (ip), vehicle: saline with Tween-80 88 % of control | dose: 400.0 mg/kg/injection, schedule: Q01DX001 (ip), vehicle: saline with Tween-80 91 % of control

CCCCCCCCCCCCCCCCCCCC(=O)CCl
inactive: dose: 100.0 mg/kg/injection, schedule: Q04DX002 (sc), vehicle: olive oil, sesame oil, peanut oil 104 % of control | dose: 200.0 mg/kg/injection, schedule: Q04DX002 (sc), vehicle: olive oil, sesame oil, peanut oil 100 % of control | dose: 400.0 mg/kg/injection, schedule: Q04DX002 (sc), vehicle: olive oil, sesame oil, peanut oil 107 % of control

CC(C)CC(CC(C)C)NCC(C)OC(=O)c1ccc(N)cc1 (configuration not stated)
inactive: [1] 96 % of control and 104 % of control | dose: 12.5 mg/kg/injection, schedule: Q04DX003 (ip), vehicle: saline with Tween-80 92 % of control | [3] 102 % of control and 105 % of control | dose: 25.0 mg/kg/injection, schedule: Q01DX009 (ip), vehicle: saline 98 % of control | dose: 25.0 mg/kg/injection, schedule: Q04DX003 (ip), vehicle: saline with Tween-80 104 % of control | dose: 25.0 mg/kg/injection, schedule: Q04DX003 (ip), vehicle: saline 100 % of control | [6] 96 % of control and 106 % of control | dose: 50.0 mg/kg/injection, schedule: Q01DX009 (ip), vehicle: saline 100 % of control | dose: 50.0 mg/kg/injection, schedule: Q04DX003 (ip), vehicle: saline with Tween-80 93 % of control | [18] 96 % of control | dose: 75.0 mg/kg/injection, schedule: Q01DX001 (ip), vehicle: other 92 % of control | dose: 100.0 mg/kg/injection, schedule: Q01DX009 (ip), vehicle: saline 88 % of control | [19] 102 % of control and 91 % of control

CCOP(=O)(NCCc1ccccc1)OCC
inactive: [4] 109 % of control | [7] 109 % of control | [11] 101 % of control

CC(=O)OCC1OC(n2ncc3c(=O)[nH]cnc32)C(OC(C)=O)C1OC(C)=O (configuration not stated)
inactive: dose: 12.5 mg/kg/injection, schedule: Q01DX005 (ip), vehicle: water 103 % of control | dose: 25.0 mg/kg/injection, schedule: Q01DX005 (ip), vehicle: water 104 % of control | dose: 50.0 mg/kg/injection, schedule: Q01DX005 (ip), vehicle: water 97 % of control | dose: 100.0 mg/kg/injection, schedule: Q01DX005 (ip), vehicle: water 98 % of control | dose: 200.0 mg/kg/injection, schedule: Q01DX005 (ip), vehicle: water 92 % of control

— PubChem BioAssay AID248 (DTP/NCI, 2004)
